# Test results reported in PubChem BioAssay (NCI).
# Where “and” joins values, the source holds several entries; their conditions need not be identical. Equal values may be shown once.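 These data come from cells grown in 96-well plates and exposed to compound for 48 hours at five concentrations. GI50 = concentration required for 50% inhibition of growth. TGI marks complete inhibition of growth.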
# Tested on: MDA-MB-468 breast
# Test: inhibition of tumour cell growth, NCI panel, 48 h
SMILES,GI50,TGI
COc1ccc(C2CC(c3ccccc3)=NN2C(=O)c2cc(OC)c(OC)c(OC)c2)cc1O (centres undefined),0.223 µM,0.613 µM
COC1=CC(c2ccc[nH]2)=N/C1=C\c1[nH]c(C)c(C(=O)Oc2ccccc2)c1C,0.368 µM,1.94 µM
COC(=O)[C@H](Cc1ccccc1)NNC(=O)c1csc([C@@H](C[C@H](C(C)C)N(C)C(=O)[C@@H](NC(=O)[C@H]2CCCCN2C)C2CC2)OC(C)=O)n1,0.00652 µM and 0.0025 µM,25 µM and > 100 µM
FC(F)(F)c1cc(Br)cc(-c2cc(-c3ccc4c(c3)OCCO4)[nH]n2)c1,0.345 µM,> 100 µM
COc1ccc(C2=NN(C=O)C(c3ccc(OS(=O)(=O)c4ccc(C)cc4)c(OC)c3)C2)cc1 (centres undefined),1.44 µM,7.7 µM
CCCCCCCCCCCCNC(=O)N[C@H](C(=O)N[C@H]1/C=C/CCNC(=O)/C=C/[C@H](C)NC1=O)C(C)C,0.0531 µM,0.218 µM
Cc1cc2c(C(=O)NCC#N)cccc2n1-c1nc2c(c(NCc3ccccc3)n1)CCCC2,0.206 µM,0.422 µM
NC(=O)c1cc(I)ccc1NC(=O)/C=C/c1ccccc1Cl,0.374 µM,7.67 µM
CCCCOC(=O)/C=C\C(=O)NC(N)=O,4.29 µM,19.4 µM
COc1cc(-c2cc(-c3cccs3)c(C#N)c(N3CCOCC3)n2)cc(OC)c1OC,1.99 µM,7.06 µM
C[C@]12CCCN1CC1=NNC(=O)c3cc(F)cc4[nH]c2c1c34,13.5 µM,34.5 µM
O=C(NCCCl)NCCN1c2nc3ccccc3cc2Sc2cc3ccccc3nc21,1.43 µM,5.42 µM
c1ccc(COCC[P+](c2ccccc2)(c2ccccc2)c2ccccc2)cc1,0.239 µM,1.95 µM
CC[C@@]1(O)C(=O)OCc2c1cc1n(c2=O)Cc2cc3c(CN(C)C)c(O)ccc3nc2-1,< 0.01 µM and 0.0234 µM,0.0426 µM and 0.108 µM
O=C(O)c1ccc(NCc2nc3ccccc3[nH]2)cc1,> 100 µM,> 100 µM
Cc1cncc(-c2nc(NCCc3c[nH]c4ccccc34)c3ncn(C(C)C)c3n2)c1,3.02 µM,10.9 µM
CC(C)C(=O)Nc1ccc(-c2nc(-c3cccc(OCCN4CCOCC4)c3)c(-c3ccnc(Br)c3)[nH]2)cc1,1.89 µM,4.04 µM
Cc1ccc(S(=O)(=O)OCC(=O)Nc2ccc(C(=O)O)c(O)c2)cc1,29.1 µM,98.6 µM
CC(=O)OC1CC2C(C)(C)CCC[C@]2(C)C2=C1C(O)=C(C(C)C)C(=O)C2=O (some centres undefined),1.56 µM,3.81 µM
NS(=O)(=O)c1ccc(N=Nc2c(O)[nH]c3ccc(C(=O)NCCc4cnc[nH]4)cc23)cc1,> 25 µM,> 25 µM
CCC(CC)c1cc(N[C@H]2CC[C@H](N)C2)n2nccc2n1,0.438 µM,2.39 µM
Cc1ccc(/C=C(/C#N)n2nnc3ncccc32)cc1,2.49 µM,11.2 µM
CCC1=C[C@@H]2CN(C1)Cc1c([nH]c3ccccc13)[C@@](C(=O)OC)(c1cc3c(cc1OC)N(C)[C@H]1[C@@](O)(C(=O)OC)[C@H](OC(C)=O)[C@]4(CC)C=CCN5CC[C@]31[C@@H]54)C2,< 0.01 µM,17 µM
CCNC(=O)Oc1ccc(/C(=C(\C)c2ccc(Cl)cc2)c2ccc(OCCN(CC)CC)cc2)cc1,3.63 µM,14.6 µM
CON=C1C[C@]2(C[C@@H]3C[C@@H](C/C=C(\C)C[C@@H](C)/C=C/C=C4\CO[C@@H]5[C@H](O)C(C)=C[C@@H](C(=O)O3)[C@]45O)O2)O[C@H](/C(C)=C/C(C)C)[C@H]1C,12.8 µM,27.5 µM

SMILES,GI50,TGI
COc1cc(N2CCN(C(C)C)CC2)ccc1Nc1nc(Nc2ccc(F)cc2C(=O)NCC(O)CO)c2cc[nH]c2n1 (centres undefined),4.46 µM,20.5 µM
COc1ccc(/C(=C/c2ccc3ccccc3c2)c2nn[nH]n2)cc1OC,21.5 µM,> 100 µM
CN1CCN(Cc2ccc(NC(=O)c3cncc(C#Cc4c(N)ncc5c(F)cccc45)c3)cc2C(F)(F)F)CC1,0.872 µM,1.69 µM
COc1ccc2nc3cc(Cl)ccc3c(NCCNCC(O)CO)c2c1 (centres undefined),0.975 µM,3.16 µM
CCOC(=O)Nc1ccc2nc(N3CCCCCC3)sc2c1,0.391 µM,3.11 µM
COc1ccc(C(C)=C(c2ccc(OCCN(C)C)cc2)c2ccc(OCCN(C)C)cc2)cc1,0.489 µM,1.44 µM
O=C(CN1CCN(CCN2C(=O)c3cccc4cccc(c34)C2=O)CC1)Nc1ccc2ncsc2c1,4.79 µM,22.3 µM
O=C(Nc1ccc(Oc2ccc(NC(=O)Nc3ccccc3Cl)cc2)cc1)Nc1ccccc1Cl,11 µM,49.6 µM
Clc1ccc(C2CC(c3cccc(Nc4ccncc4)c3)=NN2c2ccccc2)cc1 (centres undefined),1.51 µM,3.05 µM
CC(C)n1nc(C#Cc2cccc(O)c2)c2c(N)ncnc21,3.62 µM and 2.22 µM,23.8 µM and 5.51 µM
Cc1cc(O[C@@H]2O[C@@H](C)[C@H](O)[C@@H](O)[C@H]2O)c2c3c(c(O[C@@H]4O[C@@H](C)[C@H](O)[C@@H](O)[C@H]4O)cc2c1)C(=O)c1c(O)cccc1C3=O,24.5 µM,> 30 µM
CS(=O)(=O)O[C@H]1C(=O)N(c2cc3c4ccccc4ccc3c3ccccc23)[C@@H]1c1ccccn1,0.269 µM,5.27 µM
O=C(/C=C/c1ccco1)Nc1ncc(Cc2cccc(C(F)(F)F)c2)s1,0.111 µM,6.93 µM
CCN(CC)c1ccc2c(c1)Oc1nc(N)c(C#N)c(N)c1C2Sc1ccc(F)cc1 (centres undefined),1.61 µM,3.13 µM
COc1ccc(Cc2cc(OC)c(OC)c(OC)c2)cc1,0.312 µM,> 100 µM
Nc1c(C(=O)c2ccc(C#CCN3CCOCC3)cc2)cnn1-c1ccc(F)cc1,> 25 µM,> 25 µM
CC(C)(C)[Si](C)(C)OC1[C@@H](O[Si](C)(C)C(C)(C)C)[C@@H](CNC(=O)NC(=O)NC(=O)CCl)O[C@H]1n1cnc2c(NC(=O)Nc3ccccc3)ncnc21 (some centres undefined),3.91 µM,10.5 µM
Nc1nc(=S)c2ncn(C3OC(CO)C(O)C3O)c2[nH]1 (centres undefined),0.253 µM,1.69 µM
C[C@@H](Oc1ccc(Oc2cnc3ccc(Cl)cc3n2)cc1)C(=O)O,39.9 µM,> 100 µM
O=C(COc1cccc(/C=C2\COc3ccccc3C2=O)c1)c1ccccc1,1.78 µM,4.6 µM
COc1ccc(CN2C(=O)/C(=C\C(=O)c3ccc(OCCN4CCCC4)cc3)c3ccccc32)cc1,2.07 µM,4.57 µM
CCCCCCNC(=O)Oc1ccc(/C(=C(/C)c2ccc(Cl)cc2)c2ccc(OCCN3CCCC3)cc2)cc1,1.66 µM,3.17 µM
CN(C)c1ccc(/C=C(\C#N)c2ccccc2)cc1,0.34 µM and 0.293 µM and 0.728 µM,–
O=c1c2cccc(F)c2sc2c(NCCCNCCO)nc3ccccc3c12,1.63 µM,3.26 µM
CCN(CC)S(=O)(=O)c1ccc(-c2nc(C(Cl)Cl)nc3cc(-c4ccc(F)cc4)nn23)cc1,1.78 µM,6.46 µM
